The assay can be described thus: Compound was tested for inhibiting [3H]N-Methyl-scopolamine Binding to Muscarinic acetylcholine receptor M4 in NG 108-15 Cell.

In the case of `C[N+]1(C)CCC2(CC1)OC(=O)C(c1ccccc1)(c1ccccc1)O2`, the Ki (commonly a measure of affinity in units of concentration, obtained from inhibition or displacement) was 11 nM. That is a double-digit nanomolar value.
